Source: ChEMBL document CHEMBL1201862, “PubChem BioAssay data set” (2004)
Active and inactive are the calls of the source.

What was measured:
[1] = target: T1, Mannose-6-phosphate isomerase (Homo sapiens, UniProt P34949); assay: human PMI inhibitors, high substrate, primary screen, biochemical, fluorescence intensity, high mannose 6-phosphate (AID 1220)
T1 sequence (P34949 whole entry): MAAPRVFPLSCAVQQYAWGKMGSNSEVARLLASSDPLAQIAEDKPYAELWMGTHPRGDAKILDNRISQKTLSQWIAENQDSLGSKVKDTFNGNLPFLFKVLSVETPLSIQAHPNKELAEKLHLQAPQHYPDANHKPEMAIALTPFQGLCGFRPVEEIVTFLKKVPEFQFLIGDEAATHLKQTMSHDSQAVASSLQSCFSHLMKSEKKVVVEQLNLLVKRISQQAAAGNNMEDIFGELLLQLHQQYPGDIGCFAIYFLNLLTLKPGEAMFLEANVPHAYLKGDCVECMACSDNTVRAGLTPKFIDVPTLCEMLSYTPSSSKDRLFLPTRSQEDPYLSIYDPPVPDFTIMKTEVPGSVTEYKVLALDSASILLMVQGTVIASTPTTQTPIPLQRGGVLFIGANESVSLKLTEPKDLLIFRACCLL

[2] = cytotoxicity in HEK-293T cells, dose response, cytotoxicity control for TCR NF-kB inhibitor project, luminescence, T-cell screen hits (AID 489026); assay type: functional, cell-based;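 note: cells exposed to compound about 14 hours before the viability readout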
[3] = target: Dual specificity tyrosine-phosphorylation-regulated kinase 1A (Rattus norvegicus, UniProt Q63470); assay type: biochemical, Homo sapiens
[4] = target: Peroxisome proliferator-activated receptor gamma/Nuclear receptor coactivator 1 (Homo sapiens, UniProt P37231); assay: TR-FRET dose response biochemical High Throughput Screening assay for agonists of the steroid receptor coactivator 1 (SRC-1) recruitment by the peroxisome proliferator-activated receptor gamma (PPAR gamma): non-selective agonists. [Related pubchem assays (depositor defined):AID1300, AID1808, AID504735, AID631]; assay type: protein assay
Sequence of Peroxisome proliferator-activated receptor gamma/Nuclear receptor coactivator 1 (P37231 whole entry): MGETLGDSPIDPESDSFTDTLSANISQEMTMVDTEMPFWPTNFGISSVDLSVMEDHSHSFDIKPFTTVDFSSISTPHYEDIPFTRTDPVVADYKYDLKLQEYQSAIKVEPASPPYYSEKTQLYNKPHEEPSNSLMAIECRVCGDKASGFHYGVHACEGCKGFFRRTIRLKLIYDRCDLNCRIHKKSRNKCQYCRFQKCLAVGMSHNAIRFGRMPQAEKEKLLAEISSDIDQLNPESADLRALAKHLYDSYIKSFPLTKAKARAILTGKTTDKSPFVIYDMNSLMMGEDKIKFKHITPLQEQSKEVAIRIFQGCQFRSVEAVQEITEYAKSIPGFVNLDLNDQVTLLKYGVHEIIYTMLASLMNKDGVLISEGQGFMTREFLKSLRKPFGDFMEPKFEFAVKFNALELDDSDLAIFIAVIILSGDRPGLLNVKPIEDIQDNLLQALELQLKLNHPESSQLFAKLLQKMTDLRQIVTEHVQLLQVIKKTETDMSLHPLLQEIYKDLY
Sequence of Peroxisome proliferator-activated receptor gamma/Nuclear receptor coactivator 1 (Q15788 whole entry, further chain): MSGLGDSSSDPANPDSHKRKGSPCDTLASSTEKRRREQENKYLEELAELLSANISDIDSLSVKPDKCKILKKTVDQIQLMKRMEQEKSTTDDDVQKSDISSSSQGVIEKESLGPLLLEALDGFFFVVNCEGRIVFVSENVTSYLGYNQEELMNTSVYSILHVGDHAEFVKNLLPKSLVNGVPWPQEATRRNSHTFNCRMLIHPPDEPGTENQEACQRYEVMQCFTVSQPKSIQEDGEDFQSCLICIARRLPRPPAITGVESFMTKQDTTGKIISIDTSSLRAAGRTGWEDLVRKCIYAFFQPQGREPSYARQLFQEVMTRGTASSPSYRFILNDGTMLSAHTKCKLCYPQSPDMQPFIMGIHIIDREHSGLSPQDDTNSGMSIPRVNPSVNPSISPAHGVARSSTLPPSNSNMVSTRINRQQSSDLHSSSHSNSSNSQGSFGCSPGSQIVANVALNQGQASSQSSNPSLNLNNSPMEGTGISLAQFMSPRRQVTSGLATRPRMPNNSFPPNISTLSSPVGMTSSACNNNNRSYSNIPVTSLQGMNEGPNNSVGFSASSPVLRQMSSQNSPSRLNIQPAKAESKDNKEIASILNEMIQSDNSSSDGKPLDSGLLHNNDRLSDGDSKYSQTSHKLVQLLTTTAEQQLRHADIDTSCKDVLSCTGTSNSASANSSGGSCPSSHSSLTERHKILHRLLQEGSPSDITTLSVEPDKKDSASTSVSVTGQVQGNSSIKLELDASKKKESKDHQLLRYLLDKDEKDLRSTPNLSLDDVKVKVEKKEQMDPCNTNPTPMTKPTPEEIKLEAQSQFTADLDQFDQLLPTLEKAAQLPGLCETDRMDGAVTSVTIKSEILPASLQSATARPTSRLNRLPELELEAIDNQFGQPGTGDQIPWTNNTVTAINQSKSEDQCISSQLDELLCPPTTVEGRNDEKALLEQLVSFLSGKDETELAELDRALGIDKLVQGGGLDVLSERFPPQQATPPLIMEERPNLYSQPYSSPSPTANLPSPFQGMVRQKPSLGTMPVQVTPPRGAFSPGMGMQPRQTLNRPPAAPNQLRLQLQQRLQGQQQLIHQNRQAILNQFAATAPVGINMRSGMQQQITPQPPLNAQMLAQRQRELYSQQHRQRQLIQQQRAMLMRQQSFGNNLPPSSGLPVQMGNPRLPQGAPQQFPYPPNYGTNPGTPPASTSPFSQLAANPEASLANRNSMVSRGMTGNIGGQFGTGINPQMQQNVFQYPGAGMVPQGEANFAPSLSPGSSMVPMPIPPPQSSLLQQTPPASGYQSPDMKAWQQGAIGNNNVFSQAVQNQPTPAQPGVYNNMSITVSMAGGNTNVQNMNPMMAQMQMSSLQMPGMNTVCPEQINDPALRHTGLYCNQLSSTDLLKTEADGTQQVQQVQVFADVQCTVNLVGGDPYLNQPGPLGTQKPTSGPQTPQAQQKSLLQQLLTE

[5] = target: Peroxisome proliferator-activated receptor gamma/Nuclear receptor coactivator 3 (Homo sapiens, UniProt P37231); assay: TR-FRET dose response biochemical High Throughput Screening assay for agonists of the steroid receptor coactivator 3 (SRC-3) recruitment by the peroxisome proliferator-activated receptor gamma (PPAR gamma): non-selective agonists. [Related pubchem assays: 1301 (Confirmation screen.), 1048 (Primary screen.)]; assay type: functional
[6] = target: T2, Heat shock factor protein 1 (Mus musculus, UniProt P38532); assay: inhibition of MG132-induced HSE-luciferase signal, confirmation, cell-based, NIH3T3, luminescence, dose retest (AID 2382); assay type: functional;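 note: NIH3T3 fibroblasts with HSF1-driven luciferase reporter stressed by proteasome inhibitor MG132; luminescence from HSF1-driven luciferase expression after 8 hours of MG132 stress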
T2 sequence (P38532 whole entry): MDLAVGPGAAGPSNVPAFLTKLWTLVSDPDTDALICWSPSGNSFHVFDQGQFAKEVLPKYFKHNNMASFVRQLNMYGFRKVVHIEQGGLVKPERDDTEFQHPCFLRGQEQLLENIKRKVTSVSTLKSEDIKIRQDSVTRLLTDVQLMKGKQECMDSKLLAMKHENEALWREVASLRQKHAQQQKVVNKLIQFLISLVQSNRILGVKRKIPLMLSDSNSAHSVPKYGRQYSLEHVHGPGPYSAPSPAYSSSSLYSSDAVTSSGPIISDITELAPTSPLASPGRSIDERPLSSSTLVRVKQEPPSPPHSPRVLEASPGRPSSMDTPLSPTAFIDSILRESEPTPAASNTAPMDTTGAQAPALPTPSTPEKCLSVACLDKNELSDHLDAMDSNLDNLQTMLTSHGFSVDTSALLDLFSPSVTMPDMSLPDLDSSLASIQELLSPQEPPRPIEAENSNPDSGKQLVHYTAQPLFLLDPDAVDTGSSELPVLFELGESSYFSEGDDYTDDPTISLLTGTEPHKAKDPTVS

[7] = target: Peroxisome proliferator-activated receptor gamma/Nuclear receptor coactivator 2 (Homo sapiens, UniProt P37231); assay: TR-FRET dose response biochemical High Throughput Screening assay for agonists of the steroid receptor coactivator 2 (SRC-2) recruitment by the peroxisome proliferator-activated receptor gamma (PPAR gamma): non-selective agonists. [Related pubchem assays: 1297, 1032 ]; assay type: functional
Sequence of Peroxisome proliferator-activated receptor gamma/Nuclear receptor coactivator 2 (P37231 whole entry): as the sequence (P37231 whole entry) above
Sequence of Peroxisome proliferator-activated receptor gamma/Nuclear receptor coactivator 2 (Q15596 whole entry, further chain): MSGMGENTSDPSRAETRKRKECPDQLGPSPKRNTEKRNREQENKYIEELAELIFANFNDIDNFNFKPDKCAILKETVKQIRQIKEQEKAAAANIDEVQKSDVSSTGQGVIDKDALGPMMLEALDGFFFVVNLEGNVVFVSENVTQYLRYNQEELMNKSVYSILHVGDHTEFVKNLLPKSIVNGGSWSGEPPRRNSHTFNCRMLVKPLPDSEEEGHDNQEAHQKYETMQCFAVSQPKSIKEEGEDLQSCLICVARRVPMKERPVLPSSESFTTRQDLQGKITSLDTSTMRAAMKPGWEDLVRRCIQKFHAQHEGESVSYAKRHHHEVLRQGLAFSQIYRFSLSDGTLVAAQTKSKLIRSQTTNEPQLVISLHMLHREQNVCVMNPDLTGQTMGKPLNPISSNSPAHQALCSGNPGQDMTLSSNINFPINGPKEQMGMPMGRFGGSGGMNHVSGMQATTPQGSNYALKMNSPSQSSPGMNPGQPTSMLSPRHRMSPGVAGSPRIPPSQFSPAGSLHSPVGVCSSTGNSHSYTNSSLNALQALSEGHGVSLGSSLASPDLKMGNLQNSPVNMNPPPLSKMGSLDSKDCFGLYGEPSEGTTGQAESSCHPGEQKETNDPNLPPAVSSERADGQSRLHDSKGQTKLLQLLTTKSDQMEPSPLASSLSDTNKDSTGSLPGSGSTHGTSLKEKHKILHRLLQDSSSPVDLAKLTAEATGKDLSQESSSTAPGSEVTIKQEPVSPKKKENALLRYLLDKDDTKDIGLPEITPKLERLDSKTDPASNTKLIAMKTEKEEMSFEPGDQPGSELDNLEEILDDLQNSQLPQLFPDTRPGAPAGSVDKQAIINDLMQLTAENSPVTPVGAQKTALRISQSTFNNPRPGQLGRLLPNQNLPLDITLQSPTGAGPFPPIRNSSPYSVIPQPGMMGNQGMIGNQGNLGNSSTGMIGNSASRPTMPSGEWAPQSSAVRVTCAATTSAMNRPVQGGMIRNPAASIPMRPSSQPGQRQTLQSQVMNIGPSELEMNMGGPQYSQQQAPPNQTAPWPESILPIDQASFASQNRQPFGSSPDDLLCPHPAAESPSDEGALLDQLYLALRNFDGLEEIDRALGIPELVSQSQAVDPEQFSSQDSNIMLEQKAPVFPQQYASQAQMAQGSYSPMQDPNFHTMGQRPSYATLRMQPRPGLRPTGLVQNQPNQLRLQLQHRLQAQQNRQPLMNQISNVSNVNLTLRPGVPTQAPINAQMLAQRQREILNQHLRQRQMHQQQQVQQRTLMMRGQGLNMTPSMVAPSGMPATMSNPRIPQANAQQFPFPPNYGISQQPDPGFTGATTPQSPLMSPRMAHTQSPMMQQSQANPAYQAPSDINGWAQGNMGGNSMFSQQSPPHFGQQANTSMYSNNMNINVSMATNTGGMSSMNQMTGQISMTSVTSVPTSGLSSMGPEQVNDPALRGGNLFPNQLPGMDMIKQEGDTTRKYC

[8] = target: Eukaryotic translation initiation factor 4E (Mus musculus, UniProt P63073); assay: eIF4E–eIF4G protein interaction inhibitors, dose response, biochemical, TR-FRET (AID 855); assay type: functional;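 note: potency for disrupting eIF4E binding to eIF4GI seen as loss of FRET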
Sequence of Eukaryotic translation initiation factor 4E (P63073 whole entry): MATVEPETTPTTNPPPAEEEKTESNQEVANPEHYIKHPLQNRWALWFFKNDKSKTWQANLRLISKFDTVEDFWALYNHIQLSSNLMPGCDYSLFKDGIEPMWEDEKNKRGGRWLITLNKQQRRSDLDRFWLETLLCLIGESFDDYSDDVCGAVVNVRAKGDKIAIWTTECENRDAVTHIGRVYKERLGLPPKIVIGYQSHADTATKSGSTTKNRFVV

[9] = target: DNA dC->dU-editing enzyme APOBEC-3G (Homo sapiens, UniProt Q9HC16); assay: Dose Response confirmation of small molecule APOBEC3G DNA Deaminase Inhibitors via a fluorescence-based single-stranded DNA deaminase assay. [Related pubchem assays (depositor defined):AID493012, AID493028]; assay type: functional
Sequence of DNA dC->dU-editing enzyme APOBEC-3G (Q9HC16 whole entry): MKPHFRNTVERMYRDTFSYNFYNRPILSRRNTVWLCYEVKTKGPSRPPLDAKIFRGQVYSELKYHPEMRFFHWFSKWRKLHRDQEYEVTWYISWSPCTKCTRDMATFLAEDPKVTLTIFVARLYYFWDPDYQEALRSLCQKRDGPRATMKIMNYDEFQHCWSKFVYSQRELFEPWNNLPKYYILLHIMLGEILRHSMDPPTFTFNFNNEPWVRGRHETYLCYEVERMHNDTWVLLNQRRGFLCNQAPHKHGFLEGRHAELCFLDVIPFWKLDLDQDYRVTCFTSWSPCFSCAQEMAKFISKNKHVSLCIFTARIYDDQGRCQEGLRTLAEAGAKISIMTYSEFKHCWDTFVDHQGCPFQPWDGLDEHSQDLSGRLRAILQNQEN

[10] = target: G-protein coupled receptor 55 (Homo sapiens, UniProt Q9Y2T6); assay: GPR55 agonists via beta-arrestin recruitment, primary screen, imaging, U2OS cells, beta-arrestin-GFP redistribution (AID 1961); assay type: functional
Sequence of G-protein coupled receptor 55 (Q9Y2T6 whole entry): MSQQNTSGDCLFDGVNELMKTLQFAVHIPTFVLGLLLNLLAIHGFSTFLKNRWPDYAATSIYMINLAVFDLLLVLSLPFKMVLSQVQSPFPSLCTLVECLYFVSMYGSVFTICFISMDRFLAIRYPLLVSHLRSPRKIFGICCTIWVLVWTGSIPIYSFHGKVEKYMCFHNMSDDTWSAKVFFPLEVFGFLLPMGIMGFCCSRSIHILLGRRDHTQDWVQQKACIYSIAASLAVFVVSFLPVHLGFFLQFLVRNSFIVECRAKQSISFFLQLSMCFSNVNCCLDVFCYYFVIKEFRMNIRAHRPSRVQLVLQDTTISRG

[11] = HEp-2 cell cytotoxicity, dose response, cytotoxicity control for RSV inhibitor project, HTS (AID 2410); assay type: functional; conditions: human respiratory syncytial virus
Large T antigen = Large T antigen (Simian virus 40, UniProt P03070); assay type: functional, Betapolyomavirus macacae;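 note: Confirmatory-stage PubChem screen for compounds that inhibit SV40 T antigen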
[12] = target: Glucose-6-phosphate 1-dehydrogenase (Homo sapiens, UniProt P11413); assay: human G6PD enzyme inhibitors, dose response, selectivity assay for P. falciparum G6PD inhibitor project, biochemical, fluorescence (AID 504792); assay type: functional
[13] = Shn3 3'UTR reporter inhibitors, dose response, cell-based, Clone20 osteoblasts, firefly luciferase, cherry-picked (AID 624132); assay type: functional;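 note: firefly luciferase luminescence from reporter carrying the Shn3 3'UTR in osteoblasts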
[14] = HepG2 cell cytotoxicity, dose response, cytotoxicity control for Shn3 inhibitor project, CellTiter-Glo, cherry-picked (AID 624134); assay type: functional, cell-based
[15] = target: T3, Histone-lysine N-methyltransferase NSD2 (Homo sapiens, UniProt O96028); assay type: biochemical
T3 sequence (O96028 whole entry): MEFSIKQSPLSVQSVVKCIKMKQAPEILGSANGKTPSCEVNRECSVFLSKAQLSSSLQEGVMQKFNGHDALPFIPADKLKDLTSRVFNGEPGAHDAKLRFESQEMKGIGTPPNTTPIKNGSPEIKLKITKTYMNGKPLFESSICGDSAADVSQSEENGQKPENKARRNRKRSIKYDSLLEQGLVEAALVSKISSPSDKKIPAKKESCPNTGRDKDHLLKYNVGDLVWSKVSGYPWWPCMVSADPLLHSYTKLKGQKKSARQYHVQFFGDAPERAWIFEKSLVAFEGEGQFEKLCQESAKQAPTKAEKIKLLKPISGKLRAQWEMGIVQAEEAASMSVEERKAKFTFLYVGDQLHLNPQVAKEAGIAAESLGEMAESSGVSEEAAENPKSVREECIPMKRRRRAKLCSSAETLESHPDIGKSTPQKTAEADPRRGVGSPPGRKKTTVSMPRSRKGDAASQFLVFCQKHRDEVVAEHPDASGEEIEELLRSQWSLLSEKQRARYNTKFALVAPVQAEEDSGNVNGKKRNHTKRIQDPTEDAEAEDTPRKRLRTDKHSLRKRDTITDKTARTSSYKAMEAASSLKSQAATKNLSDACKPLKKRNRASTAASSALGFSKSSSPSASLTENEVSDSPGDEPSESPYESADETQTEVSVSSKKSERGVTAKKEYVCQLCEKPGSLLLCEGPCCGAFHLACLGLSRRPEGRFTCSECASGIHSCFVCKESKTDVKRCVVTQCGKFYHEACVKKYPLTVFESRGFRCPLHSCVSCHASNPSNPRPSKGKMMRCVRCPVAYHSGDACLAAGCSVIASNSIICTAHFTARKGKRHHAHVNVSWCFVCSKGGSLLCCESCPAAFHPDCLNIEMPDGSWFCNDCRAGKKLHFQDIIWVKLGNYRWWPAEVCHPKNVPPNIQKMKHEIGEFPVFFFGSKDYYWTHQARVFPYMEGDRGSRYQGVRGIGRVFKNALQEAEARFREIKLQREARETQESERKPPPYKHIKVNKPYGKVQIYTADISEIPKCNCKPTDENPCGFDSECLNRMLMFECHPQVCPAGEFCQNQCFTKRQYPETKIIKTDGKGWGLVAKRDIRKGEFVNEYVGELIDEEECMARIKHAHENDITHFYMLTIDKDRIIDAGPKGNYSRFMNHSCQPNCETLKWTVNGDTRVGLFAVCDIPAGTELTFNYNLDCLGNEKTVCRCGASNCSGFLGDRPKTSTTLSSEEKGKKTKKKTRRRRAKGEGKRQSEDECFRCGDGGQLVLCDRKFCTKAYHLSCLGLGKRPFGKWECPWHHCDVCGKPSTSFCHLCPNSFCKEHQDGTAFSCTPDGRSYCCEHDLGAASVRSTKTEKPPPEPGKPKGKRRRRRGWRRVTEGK

[16] = HeLa cell cytotoxicity, dose response, cytotoxicity control for MgcRacGAP inhibitor project (AID 624300); assay type: functional
[17] = target: T4, Rac GTPase-activating protein 1 (Homo sapiens, UniProt Q9H0H5); assay: MgcRacGAP GTPase-activating activity inhibitors, confirmation, biochemical, ADP Hunter fluorescence, primary and confirmatory (AID 624330); assay type: functional
T4 sequence (Q9H0H5 whole entry): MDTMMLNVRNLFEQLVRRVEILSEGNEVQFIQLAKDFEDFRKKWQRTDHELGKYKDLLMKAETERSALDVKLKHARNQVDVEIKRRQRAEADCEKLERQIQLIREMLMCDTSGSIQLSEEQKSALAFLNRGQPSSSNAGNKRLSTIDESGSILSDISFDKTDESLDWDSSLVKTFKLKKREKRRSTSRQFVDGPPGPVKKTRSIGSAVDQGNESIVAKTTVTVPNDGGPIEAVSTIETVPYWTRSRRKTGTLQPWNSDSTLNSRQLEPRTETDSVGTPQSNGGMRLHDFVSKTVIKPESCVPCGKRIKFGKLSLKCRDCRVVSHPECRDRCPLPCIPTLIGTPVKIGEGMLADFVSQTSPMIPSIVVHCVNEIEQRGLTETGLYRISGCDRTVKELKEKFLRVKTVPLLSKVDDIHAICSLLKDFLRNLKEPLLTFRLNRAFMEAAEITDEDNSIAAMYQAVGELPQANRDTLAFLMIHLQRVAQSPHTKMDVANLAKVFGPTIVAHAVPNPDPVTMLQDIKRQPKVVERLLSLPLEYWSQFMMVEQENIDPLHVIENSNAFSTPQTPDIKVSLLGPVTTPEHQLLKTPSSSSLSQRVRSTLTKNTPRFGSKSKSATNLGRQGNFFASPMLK

CCN(CC)C(=S)SC1=CCS(=O)(=O)C1
IC50 [1]: 24.5 µM (active)

CCOC(=O)c1[nH]c(C)c(C(=O)Nc2ccccc2C)c1C
IC50 [2]: > 80 µM (inactive)

COCCNC(=O)c1ccc2c(c1)nc(C)n2-c1cccc(F)c1
AC50 [3]: 98.8 µM (active)

Cn1c(=O)cc(SCC(=O)N2CCN(C(=O)c3ccco3)CC2)c2ccccc21
EC50 [4]: > 79.4 µM (inactive) | EC50 [5]: > 79.4 µM (not active) | EC50 [6]: > 195 µM (not active) | EC50 [7]: > 79.4 µM (not active)

CCN(CC)S(=O)(=O)c1cc(F)ccc1OC
IC50 [8]: > 64 µM (inactive)

CCc1ccc(-n2c(C)nnc2S)cc1
IC50 [9]: 14.6 µM (active)

COC(=O)c1ccccc1NC(=O)COC(=O)c1ccc(C)c(NC(=O)c2ccco2)c1
IC50 [8]: > 64 µM (inactive)

CCOC(=O)C1CCN(C(=O)CSc2cc(=O)n(CC)c3ccccc23)CC1
EC50 [4]: > 79.4 µM (inactive) | EC50 [5]: > 79.4 µM (not active) | EC50 [7]: > 79.4 µM (not active)

CCOC(=O)c1sc2cc([N+](=O)[O-])cc(SCC(C)C)c2c1N
EC50 [10]: 0.523 µM (active)

N#Cc1c2ccc(OCC(N)=O)cc2n2ccccc12
IC50 [1]: > 50 µM (not active)

CCn1c(SCc2c(Cl)cccc2Cl)nnc1-c1nn(-c2ccccc2)ccc1=O
CC50 [11]: 49.8 µM (active) | IC50 (cells): 33.7 µM (active)

CC1=NOC(=O)/C1=C\c1ccc(-c2ccccc2Br)o1
EC50 [4]: 9.24 µM (active) | EC50 [5]: > 79.4 µM (not active) | IC50 (Large T antigen): 16.4 µM (active) | EC50 [7]: 5.02 µM (active) | IC50 [12]: > 80 µM (inactive) | AC50 [13]: 6.48 µM (active) | AC50 [14]: > 70 µM (inactive) | AC50 [15]: > 20 µM (inactive)

CC(=O)Oc1cc(OC(C)=O)c2c(C)cc(=O)oc2c1
IC50 (cells): 25.3 µM (active)

CC(C)(C)C1=Nn2c(nnc2-c2n[nH]c3c2CCC3)SC1
IC50 [1]: > 50 µM (not active) | IC50 [9]: 23.3 µM (active)

Cc1[nH][nH]c(=O)c1N=Nc1ccccc1Cl
AC50 [3]: 28.9 µM (active)

Cc1ccnc(Nc2nc(-c3ccc(O)c(O)c3)cs2)c1
AC50 [3]: 10.1 µM (active) | CC50 [16]: 69.5 µM (active) | IC50 [17]: 41.3 µM (active)

COc1cc(C(C(=O)NC2CCCCC2)N(C(=O)c2snc(C(N)=O)c2N)c2ccc(C)cc2)ccc1O (stereo not drawn)
CC50 [11]: > 50 µM (active) | IC50 (cells): 47 µM (active)

O=C(O)Cc1sc(-c2ccccc2)nc1-c1cccs1
EC50 [4]: 94.8 µM (inactive) | EC50 [5]: > 79.4 µM (not active) | EC50 [7]: 26 µM (not active)

COc1ccc(C2=Nn3c(nnc3-c3ccccc3OC)SC2)cc1OC1CCCC1
IC50 [2]: 35.9 µM (inactive)
